Data reported in patent US6461997B1, “Triazole sulfones having herbicidal activity” (Monsanto Technology LLC, priority 1999, dated 2002).

How the values were obtained:
SINAR (wild mustard) = assay: Pre-emergence herbicidal activity, cool season; type: in vivo, Sinapis arvensis; conditions: lowest tested rate with 80% or greater inhibition; rates 300, 100, 30, 10 g/ha; about 14 days
Procedure: (§1) Tables 5 to 8 summarize results of tests conducted as described below to determine the pre-emergence herbicidal activity, in the form of a GR80 value, of illustrative compounds of this invention. […] Compounds of the invention were typically applied at rates of 300, 100, 30, and 10 g/ha. Where herbicidal activity was evident but 80% inhibition was not achieved at the highest rate tested, an asterisk (*) is shown in the following tables.
(§2) The pre-emergence tests were conducted by the following procedure. Topsoil was sieved to pass through a 1.27 cm screen. Fertilizer was added to the topsoil and the mixture was then sterilized by heating. The topsoil mixture was placed in a pot and compacted to a depth of 1.0 to 1.25 cm from the top of the pot. Seeds of each of several monocotyledonous and dicotyledonous annual plant species were placed on top of the soil. Additional soil was subsequently placed over the seeds to level-fill the pot. A known amount of each test compound dissolved or suspended in an appropriate organic solvent was diluted with a 50:50 mix of acetone and water and applied to the surface of the soil. After treatment the plants were placed in a greenhouse where they received 0.64 cm of overhead irrigation. All subsequent watering consisted of a light overhead mist and/or subirrigation as needed for germination and growth. Tables 5 and 6 below relate to warm season plant species which were placed after pre-emergence treatment in a greenhouse with a 30/21° C. day/night temperature regime. Tables 7 and 8 below relates to cool season plant species placed after pre-emergence treatment in a greenhouse or growth chamber with an 18/13° C. day/night temperature regime.
(§3) Approximately 14 days after planting and treating, the plants were observed and herbicidal efficacy recorded as percent inhibition by comparison with untreated plants.
(§4) The plant species usually regarded as weeds which were utilized in the tests are identified in the tables below according to the following legend, in which “d” indicates a dicotyledonous species and “m” a monocotyledonous species. All monocotyledonous species included in the tests herein are grasses.

[1] = test system: VERPE (creeping speedwell); assay: Pre-emergence herbicidal activity, cool season; type: in vivo, Veronica persicaria; conditions: lowest tested rate with 80% or greater inhibition; rates 300, 100, 30, 10 g/ha; about 14 days
Procedure: as §1, §2, §3, §4

STEME (common chickweed) = assay: Pre-emergence herbicidal activity, cool season; type: in vivo, Stellaria media; conditions: lowest tested rate with 80% or greater inhibition; rates 300, 100, 30, 10 g/ha; about 14 days
Procedure: as §1, §2, §3, §4

ECHCG (barnyardgrass) = assay: Pre-emergence herbicidal activity, warm season; type: in vivo, Echinochloa crus-galli; conditions: GR80 = lowest tested rate (300, 100, 30, 10 g/ha) with 80% or greater inhibition; approx. 14 days after treating; 30/21° C.
Procedure: as §1, §2, §3, §4

SETVI (green foxtail) = assay: Pre-emergence herbicidal activity, cool season; type: in vivo, Setaria viridis; conditions: GR80 = lowest tested rate (300, 100, 30, 10 g/ha) with 80% or greater inhibition; approx. 14 days after treating; 18/13° C.
Procedure: as §1, §2, §3, §4

[2] = test system: GALAP (catchweed bedstraw); assay: Pre-emergence herbicidal activity, cool season; type: in vivo, Galium aparine; conditions: lowest tested rate with 80% or greater inhibition; rates 300, 100, 30, 10 g/ha; about 14 days
Procedure: as §1, §2, §3, §4

[3] = test system: PANMI (wild proso millet); assay: Pre-emergence herbicidal activity, warm season; type: in vivo, Panicum miliaceum; conditions: GR80 = lowest tested rate (300, 100, 30, 10 g/ha) with 80% or greater inhibition; approx. 14 days after treating; 30/21° C.
Procedure: as §1, §2, §3, §4

[4] = test system: AGSST (creeping bentgrass); assay: Pre-emergence herbicidal activity, cool season; type: in vivo, Agrostis stolonifera; conditions: GR80 = lowest tested rate (300, 100, 30, 10 g/ha) with 80% or greater inhibition; approx. 14 days after treating; 18/13° C.
Procedure: as §1, §2, §3, §4

[5] = test system: LAMPU (purple deadnettle); assay: Pre-emergence herbicidal activity, cool season; type: in vivo, Lamium purpureum; conditions: lowest tested rate with 80% or greater inhibition; rates 300, 100, 30, 10 g/ha; about 14 days
Procedure: as §1, §2, §3, §4

POLCO (wild buckwheat) = assay: Pre-emergence herbicidal activity, cool season; type: in vivo, Polygonum convolvulus; conditions: lowest tested rate with 80% or greater inhibition; rates 300, 100, 30, 10 g/ha; about 14 days
Procedure: as §1, §2, §3, §4

SASKR (russian thistle) = assay: Pre-emergence herbicidal activity, cool season; type: in vivo, Salsola kali; conditions: lowest tested rate with 80% or greater inhibition; rates 300, 100, 30, 10 g/ha; about 14 days
Procedure: as §1, §2, §3, §4

| SMILES | Pre-emergence activity GR80, SINAR (SINAR (wild mustard)) | Pre-emergence activity GR80, VERPE [1] | Pre-emergence activity GR80, STEME (STEME (common chickweed)) | Pre-emergence activity (GR80) ECHCG (ECHCG (barnyardgrass)) | Pre-emergence activity (GR80) SETVI (SETVI (green foxtail)) | Pre-emergence activity GR80, GALAP [2] | Pre-emergence activity (GR80) PANMI [3] | Pre-emergence activity (GR80) AGSST [4] | Pre-emergence activity GR80, LAMPU [5] | Pre-emergence activity GR80, POLCO (POLCO (wild buckwheat)) | Pre-emergence activity GR80, SASKR (SASKR (russian thistle)) |
| --- | --- | --- | --- | --- | --- | --- | --- | --- | --- | --- | --- |
| CN(C(=O)n1cnc(S(=O)(=O)C(F)(F)C(F)(F)Br)n1)C1CCCCC1 [Example 79] | 300 g/ha | 30 g/ha | 100 g/ha | 300 g/ha | 300 g/ha | 300 g/ha | 300 g/ha | 100 g/ha | 100 g/ha | 300 g/ha | [empty] |
| C#CCN(C)C(=O)n1cnc(S(=O)(=O)C(F)(F)SCC)n1 [Example 54] | [empty] | 300 g/ha | [empty] |  |  | [empty] | 300 g/ha |  | [empty] | 100 g/ha | [empty] |
| O=C(N1CCOCC1)n1cnc(S(=O)(=O)C(F)F)n1 [Example 25] | [empty] | [empty] | [empty] |  |  | 300 g/ha |  |  | 300 g/ha | [empty] | [empty] |
| CCN(CC)C(=S)n1cnc(S(=O)(=O)C(F)F)n1 [Example 35] | 100 g/ha | 100 g/ha | [empty] |  |  | 100 g/ha |  |  | 300 g/ha | 100 g/ha | [empty] |
| C=CCN(C)C(=O)n1cnc(S(=O)(=O)C(F)(F)C(F)(F)Br)n1 [Example 77] | [empty] | [empty] | [empty] |  |  | [empty] |  | 300 g/ha | [empty] | [empty] | [empty] |
| O=C(N1CCOCC1)n1cnc(S(=O)(=O)C(F)(F)C(F)F)n1 [Example 60] | [empty] | [empty] | [empty] |  |  | [empty] |  |  | [empty] | [empty] | [empty] |
| CN(Cc1ccccc1)C(=O)n1cnc(S(=O)(=O)C(F)(F)C(F)(F)Br)n1 [Example 80] | [empty] | [empty] | [empty] |  | 300 g/ha | [empty] | 300 g/ha |  | [empty] | [empty] | [empty] |
| O=C(N1CCOCC1)n1cnc(S(=O)(=O)C(F)(F)C(F)(F)Br)n1 [Example 72] | [empty] | [empty] | [empty] |  |  | [empty] |  |  | [empty] | 300 g/ha | [empty] |
| C=CCN(C)C(=O)n1cnc(S(=O)(=O)C(F)(F)SCC)n1 [Example 53] | [empty] | [empty] | [empty] |  | 300 g/ha | 300 g/ha | 300 g/ha | 300 g/ha | [empty] | [empty] | [empty] |
| C#CCN(C)C(=O)n1cnc(S(=O)(=O)C(F)(F)Br)n1 [Example 42] | [empty] | [empty] | [empty] |  |  | 300 g/ha | 300 g/ha | 100 g/ha | [empty] | [empty] | [empty] |
| COCCN(C)C(=O)n1cnc(S(=O)(=O)C(F)F)n1 [Example 29] | 300 g/ha | 100 g/ha | 300 g/ha |  |  | [empty] |  | 300 g/ha | 300 g/ha | [empty] | 300 g/ha |
| CCSC(F)(F)S(=O)(=O)c1ncn(C(=O)N(C)c2ccccc2)n1 [Example 50] | [empty] | [empty] | 300 g/ha |  |  | 100 g/ha | 300 g/ha | 30 g/ha | [empty] | [empty] | [empty] |
| CN(C(=O)n1cnc(S(=O)(=O)C(F)(F)C(F)(F)Br)n1)c1ccccc1 [Example 74] | 300 g/ha | 300 g/ha | [empty] |  |  | [empty] | 300 g/ha |  | 300 g/ha | [empty] | 300 g/ha |
| CN(C(=O)n1cnc(S(=O)(=O)C(F)(F)Cl)n1)c1ccccc1 [Example 86] | 300 g/ha | 100 g/ha | [empty] |  |  | 300 g/ha |  |  | 100 g/ha | [empty] | 300 g/ha |
| CN(C(=O)n1cnc(S(=O)(=O)C(F)(F)Br)n1)c1ccccc1 [Example 38] | [empty] | [empty] | [empty] |  |  | [empty] |  |  | [empty] | [empty] | [empty] |
| C#CCN(C)C(=O)n1cnc(S(=O)(=O)C(F)(F)Cl)n1 [Example 90] | 300 g/ha | 10 g/ha | [empty] |  |  | [empty] |  |  | [empty] | [empty] | 30 g/ha |
| CN(C(=O)n1cnc(S(=O)(=O)C(F)(F)C(F)F)n1)c1ccccc1 [Example 62] | [empty] | [empty] | [empty] |  |  | [empty] |  |  | 300 g/ha | [empty] | [empty] |
